# Results from paper PMC7385626 (Scientific Reports, 2020).
# “And” between values parts separate entries of the source, which are not always exact repeats. Equal entries are not always repeated.
# What was measured:
# CT-DNA = experiment: Ethidium bromide exchange (fluorescence quenching) study; format: binding, calf
# Protocol: Fig. S13. The emission spectra of EB-bound (a) DNA solutions in the absence and presence of increasing concentrations of 2, 3, and 4 25 μM (b), 50 μM (c), and 75 μM (d). [EB]=10.0 μM (e), [DNA] 50.0 μM. […] (µM) for determining KSV.
# BSA = BSA (Bos taurus, UniProt P02769); experiment: UV–Visible absorption titration, BSA binding constant; set-up: species or system Bovine
# Description: UV–Visible absorption spectroscopy technique was also used to study interactions between BSA and 1–4. […] The some results of [BSA]/(εa − εf) = [BSA]/(εb − εf) + 1/[Kb(εb − εf)] in Fig. 9, used and also obtained. The binding constants for the 1–4 were found as 2.4 ± 0.22 × 10^4 M^−1, 4.3 ± 0.29 × 10^4 M^−1, 3.4 ± 0.23 × 10^4 M^−1 and 4.8 ± 0.29 × 10^4 M^−1, respectively. In Fig. 9, the increase in BSA concentrations leads to a change in the absorption of the complexes resulting in hypochromism for 1 and 3 and hyperchromism for 2 and 4.
# To obtain the interaction act of the molecules with calf thymus DNA and also to determine the binding constants (Kb) UV–Visible absorption spectroscopy method was utilized. Indeed, 2.5 mg calf thymus DNA in this part was dissolved in Tris–HCl buffer and stabile pending seven days in the refrigerator. The concentration level of calf thymus DNA was calculated spectrophotometrically assay at 260 nm. This method was done according to previous studies.
# HT29 = experiment: BrdU Cell Proliferation Assay (BCPA); format: cell-based, human
# Description: (§1) The antiproliferative activities of Ag(I) molecules and the starting molecules of the parent molecules, N-bishydeten and [Ag(CN)2]^− compound, on cells, were monitored utilizing by the BrdU Cell Proliferation Assay (BCPA) (Fig. 6).
# (§2) The antiproliferative activity of the 2, 3, 4, [Ag(CN)2]^− and 5FU against various cell lines (HeLa ATCC CCL-2, C6 cells ATCC CCL-107, HT29 ATCC HTB-38, and Vero ATCC CCL-81) were preserved and maintained in Dulbecco’s modified eagle’s medium, supplemented with %2 antibiotic (Streptomycin-Penicillin) solution and 10% fetal bovine serum.
# (§3) The cell suspension including 5×10^3 cells in 100 µL was supplied into the well cell plates (96-well cell). The therapies of these cells with 2, 3, 4 and [Ag(CN)2]^− in DMSO (max 0.1% DMSO) and 5-Florouracil (5 FU) molecule in DMSO (max 0.1% DMSO) separately at concentration 0.25, 0.50, 1.00, 1.50, 2.00, 2.50, 3.75, and 5.00 µg/mL were carried out. The last volume was adapted to 200 µL by mixture and DMEM and also incubated for 24 h at 37°C with 5% CO2. The antiproliferative activities of the 2, 3, 4 and [Ag(CN)2]^− were determined with using BrdU Cell proliferation ELISA Kit conforming to manufacturer’s assay.
# (§4) IC50 values the concentration of a factor which required for other method of in vitro.
# [1] = test system: HeLa, HT29, C6 and Vero cells; experiment: BrdU Cell Proliferation Assay, range over the cell lines; format: cell-based
# Description: as §1, §2, §3, §4
# KpnI and BamHI = experiment: Inhibition of restriction endonucleases activity (pTOLT plasmid digestion); format: biochemical
# Protocol: Fig. S12. […] Following 4 h 37°C digestion of the 14µL with 10U KpnI and BamHI, these digestion products were resolved with 1.5% agarose gel containing ethidium bromide. Lane 1: enzyme + DNA + complex 4, Lane 2: enzyme + DNA + complex 3, Lane 3: enzyme + DNA + complex 2, Lane 4: Positive control (enzyme + DNA), Lane 5: Negative control (plasmid DNA + water); lane 6: DNA marker (1Kb).
# HT29 cells = experiment: TUNEL assay; format: cell-based, human
# Protocol: […]. We have evaluated the apoptotic effect of the molecules on HT29 cells utilizing the TUNEL method as an immunohistological study to reveal their mechanism of action on cells. The apoptotic activity of the Ag(I) compounds was examined in human colon cancer cells, HT29. […]. […] […].
# Figure 8 Phase-contrast and Fluorescence and image of the HT29 cancer cell line examined by TUNEL assay. […].
# In situ finding of apoptosis was conducted utilizing a TUNEL method kit conforming to the manufacturer’s mechanism. HT29 cells (30.000 cells/chamber slide section) were conveyed in poly-L-lysine covered chamber slide. […]. Finally, slide was gently washed with cold DPBS and added 4 % paraformaldehyde for fixation for 60 min at room temperature. Following incubation, the cells were blocked with freshly prepared 3 % H2O2 in methanol at room temperature. Then, the cells were exposed to permeabilized solution (0.1 % sodium citrate and 0.1 % Triton X-100) for 2 minutes on ice. At this stage in order to prepare a DNase I enzyme treated as positive control, 10 μl of DNase-I and 90 μl its buffer was added to slide and incubated at room temperature for 10 minutes. The compotent cell was transferred into TUNEL reaction mixture (50 μL/section) involving a TdT and fluorescein-dUTP mix for 1 h at 37 °C, in a humidified phase and protected from light. In the end of the process, the positive cell nuclei obtained a green fluorescent signal which visualized by a Leica fluorescent microscope.
# B. subtilis ATCC6633 = experiment: Disc diffusion assay; format: cell-based, Bacillus Subtilis
# Protocol: (§5) Therefore, the pathogen bacterial flora and the opportunistic agents may be taken into consideration both in the management of cancer patients and in individual susceptibility to cancer. Indeed, dual acting factors with antimicrobial and antiproliferative potentials can result in improved therapeutic efficacy for cancer cell patients or reduced cancer predisposition. […]. In this study, 10 microbial cultures of this part, belonging to ten types of bacterial were used. The culture was grown in Mueller–Hinton Broth (Merck) for all the bacterial strains at 36 °C. Antimicrobial test was carried out by using disc-diffusion assay utilizing 100 µL of suspension with 10^8 CFU/mL of bacteria and 10^6 CFU/mL of yeast spread on Nutrient Agar and Potato Dextrose Agar, respectively. Also, the blank disc (Oxoid = 6 mm in diameter) was impregnated with 20 µL of each substance (105 µg/disc) and placed on the inoculated agar. Negative controls ([…]) were prepared using the same solvent (water) employed to dissolve each substance. […]. The inoculated plate was incubated at 36 °C for clinical bacterial strains. Antimicrobial activities were evaluated by obtaining the zone of inhibitory effect against the test organisms.
# B. cereus DSM 4312 = experiment: Disc diffusion assay; format: cell-based, Bacillus Cereus
# Protocol: as §5
# St. pyogenez ATCC176 = experiment: Disc diffusion assay; format: cell-based, Steptococcus Pyogerez
# Protocol: as §5
# E. coli 111 = experiment: Disc diffusion assay; format: cell-based, Escherichia coli
# Protocol: as §5
# E. aerogenes 2924 = experiment: Disc diffusion assay; format: cell-based, Enterobacter Aerogenes
# Protocol: as §5
# S. gallinarum = experiment: Disc diffusion assay; format: cell-based, Salmonella Gallinarum
# Protocol: as §5
Substance,"KSV (Stern–Volmer quenching constant, EB-DNA) (CT-DNA)",binding constant with BSA (BSA),IC50 (HT29) [nM],IC50 [1] [nM],effect on restriction endonucleases activity (KpnI and BamHI digestion of pTOLT plasmid DNA) (KpnI and BamHI),apoptosis by TUNEL (HT29 cells),"inhibition zones, B. subtilis ATCC6633 (B. subtilis ATCC6633) [mm]","inhibition zones, B. cereus DSM 4312 (B. cereus DSM 4312) [mm]","inhibition zones, St. pyogenez ATCC176 (St. pyogenez ATCC176) [mm]","inhibition zones, E. coli 111 (E. coli 111) [mm]","inhibition zones, E. aerogenes 2924 (E. aerogenes 2924) [mm]","inhibition zones, S. gallinarum (S. gallinarum) [mm]"
[Cd(N-bishydeten)]4[Ag(CN)2]8[Ag(CN)]2 [Complex 4],1.1 ± 0.12 × 10^3 M^−1,4.8 ± 0.29 × 10^4 M^−1 and 4.8 x 10^4,480 ± 80,480 to 630,failed to inhibit the restriction endonucleases activity,significantly triggered apoptosis,34 ± 0.58,36 ± 1.0,26 ± 0.0,29 ± 0.58,25 ± 1.0,37 ± 1.0
[Cu(N-bishydeten)Ag3(CN)5] [Complex 2],5.0 ± 0.32 × 10^3 M^−1,4.3 ± 0.29 × 10^4 M^−1 and 4.3 x 10^4,870 ± 90,870 to 3640,caused the formation of two DNA bands (Lane 3) corresponding to the supercoiled and nicked DNA,significantly triggered apoptosis,27 ± 0.58,30 ± 0.58,32 ± 0.58,32 ± 0.0,22 ± 1.0,35 ± 1.0
[Zn(N-bishydeten)Ag3(CN)5] [Complex 3],13.7 ± 0.41 × 10^3 M^−1,3.4 ± 0.23 × 10^4 M^−1 and 3.4 x 10^4,2370 ± 320,2370 to 3340,failed to inhibit the restriction endonucleases activity,significantly triggered apoptosis,31 ± 1.0,34 ± 0.0,29 ± 0.58,30 ± 0.58,20 ± 1.0,35 ± 0.58
